Data taken from publication PMC8541144, “Synthesis, Characterization and In Vitro Evaluation of Hybrid Monomeric Peptides Suited for Multimodal Imaging by PET/OI: Extending the Concept of Charge—Cell Binding Correlation” (Pharmaceuticals, 2021).

Experiments:
GRPR = molecular target: T1, GRPR (Homo sapiens, UniProt P30550); assay: Competitive displacement assay on stably GRPR-transfected HEK-293 cells, [125I]I-Tyr4-bombesin as competitor; assay type: binding; conditions: GRPR-expressing HEK cells, mean ± SD
T1 construct: host or cells: HEK-293 (HEK-GRPR), stably transfected
T1 sequence (P30550 whole entry, species assumed): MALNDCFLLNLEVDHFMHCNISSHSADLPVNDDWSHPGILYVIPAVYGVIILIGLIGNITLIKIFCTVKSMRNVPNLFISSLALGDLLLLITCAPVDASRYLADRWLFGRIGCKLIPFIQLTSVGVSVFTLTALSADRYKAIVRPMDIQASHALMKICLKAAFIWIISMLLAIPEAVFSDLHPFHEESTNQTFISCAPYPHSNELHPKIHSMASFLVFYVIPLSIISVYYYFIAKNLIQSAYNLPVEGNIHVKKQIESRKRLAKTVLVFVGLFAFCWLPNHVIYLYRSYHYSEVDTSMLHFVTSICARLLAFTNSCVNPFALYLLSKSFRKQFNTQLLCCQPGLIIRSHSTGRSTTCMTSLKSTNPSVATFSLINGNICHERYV
Experimental: Each compound was evaluated at least three times, each experiment being performed in triplicate. […] The respective cells were harvested and re-suspended in the binding buffer to give a cell concentration of 2 × 10^6/mL. […] Using a Millipore MultiScreen disposable punch and a Millipore MultiScreen punch kit, the filters of the well plate were collected in γ-counter tubes separately and measured by γ-counting.

[1] = LogD determination: partition between 1-octanol and phosphate buffer pH 7.4
Experimental: In the following, the lipophilicity of the labeled conjugates was investigated to get a first idea of the potential excretion pathway of the agents during an in vivo application. The logD values were determined by partition experiments between n-octanol and aqueous solution at pH 7.4.
The mixtures were intensively shaken for 5 min on a vibrating plate. After subsequent centrifugation at 13,000 rpm for 5 min, 125 µL were taken from each phase and measured in a γ-counter. The logD values were calculated from three or four independent experiments, each performed in triplicate.

CSCC[C@H](NC(=O)[C@H](CC(C)C)NC(=O)[C@H](Cc1c[nH]cn1)NC(=O)CNC(=O)[C@@H](NC(=O)[C@H](C)NC(=O)[C@H](Cc1c[nH]c2ccccc12)NC(=O)[C@H](CCC(N)=O)NC(=O)CCOCCOCCOCCOCCNC(=O)CCCN1C(=O)CC(SC[C@H](NC(=O)CNC(=O)CC[C@H](C(=O)O)N2CCN(CC(=O)O)CCN(CC(=O)O)CC2)C(N)=O)C1=O)C(C)C)C(N)=O (some centres unmarked) [10 a, BBN7-14-NODA-GA]
IC50 (GRPR): 0.0191 ± 0.00144 µM
logD [1]: -3.78 ± 0.04
